Consider seven molecules from PMC5896574 (ChemMedChem, 2017).

Like-named read-outs stand apart in the source and are kept apart here.

Assay [1] relates to HIV-1LAI. In words: Antiviral assay using MT-2 cells exposed to HIV-1LAI. In kind it is cell-based.
In assay [2] the test system is HIVAO2. Put plainly: Antiviral activity of 3b against HIVAO2. In kind it is cell-based, HIV.
For assay [3], the system named is HIV-2ROD. Put plainly: Antiviral activity of 3b against HIV-2ROD. In kind it is cell-based. The settings on record: read-out: Antiviral activity (EC50).
In assay [4] the test system is HIVDRV^RP20. In words: Antiviral activity of 3b against HIVDRV^RP20. In kind it is cell-based, HIV. The note with it: read-out: Antiviral activity (EC50).
Assay [5] concerns the target HIV-1 protease (Human immunodeficiency virus type 1 group M subtype B, UniProt P04585). In words: HIV-1 protease inhibitory assay. In kind it is biochemical.
Assay [6] relates to HIV-1NL4-3. In words: Antiviral p24 assay, MT-4 cells exposed to wild-type HIV-1NL4-3. The format is cell-based.
Assay [7] has as its system HIV-1DRV^RP20. In words: microbe, parasite or virus in culture. The format is cell-based. The settings on record: for fold change of IC50: HIV-1DRV^RP20 relative to HIV-1NL4-3.
Assay [8] deals with HIV-1DRV^RP30. In words: microbe, parasite or virus in culture. In kind it is cell-based. The settings on record: for fold change of IC50: HIV-1DRV^RP30 relative to HIV-1NL4-3.
The test system of assay [9] is HIV-1DRV^RP40. In words: microbe, parasite or virus in culture. In kind it is cell-based. The note with it: for fold change of IC50: HIV-1DRV^RP40 relative to HIV-1NL4-3.
[10] abbreviates: read-out: antiviral IC50, MT-2 cells exposed to HIV-1LAI, mean of at least three experiments.
Where [11] appears, read: Human immunodeficiency virus 1, MT2, read-out: antiviral IC50.
The mark [12] stands for this setting: Human immunodeficiency virus 1, MT4.

Consider `CC(C)CN(C[C@@H](O)[C@H](Cc1ccccc1)NC(=O)O[C@H]1CO[C@H]2OCC[C@H]21)S(=O)(=O)c1ccc(C(=O)O)cc1` [3a, 4-(N-((2R,3S)-3-(((((3R,3aS,6aR)-Hexahydrofuro[2,3-b]furan-3-yl)oxy)carbonyl)amino)-2-hydroxy-4-phenylbutyl)-N-isobutylsul-famoyl)benzoic acid], for which the IC50 in [1] (read-out: antiviral IC50, MT-2 cells exposed to HIV-1LAI) is more than 1000 nM.
Consider `CC(C)CN(C[C@@H](O)[C@H](Cc1ccccc1)NC(=O)O[C@H]1CO[C@H]2OCC[C@H]21)S(=O)(=O)c1ccc(C(N)=O)cc1` [3b, (3R,3aS,6aR)-Hexahydrofuro[2,3-b]furan-3-yl ((2S,3R)-4-((4-carba-moyl-N-isobutylphenyl)sulfonamido)-3-hydroxy-1-phenylbutan-2-yl)carbamate], for which, in assay [1] (setting [10]), the concentration for half-maximal inhibition (IC50) is 45 nM. The EC50 was determined as 29 nM in assay [2], 30 nM in assay [3] and 97 nM in assay [4].
For the molecule `CC(C)CN(C[C@@H](O)[C@H](Cc1ccccc1)NC(=O)O[C@H]1CO[C@H]2OCC[C@H]21)S(=O)(=O)c1ccc([C@@H](C)O)cc1` [3e, (3R,3aS,6aR)-Hexahydrofuro[2,3-b]furan-3-yl ((2S,3R)-3-hydroxy-4-((4-((R)-1-hydroxyethyl)-N-isobutylphenyl)sulfonamido)-1-phe-nylbutan-2-yl)carbamate], the IC50 in assay [1] (setting [10]) came to 4 nM.
`COC(=O)c1coc(-c2ccc(S(=O)(=O)N(CC(C)C)C[C@@H](O)[C@H](Cc3ccccc3)NC(=O)O[C@H]3CO[C@H]4OCC[C@H]43)cc2)n1` [3g, Methyl 2-(4-(N-((2R,3S)-3-(((((3R,3aS,6aR)-hexahydrofuro[2,3-b]furan-3-yl)oxy)carbonyl)amino)-2-hydroxy-4-phenylbutyl)-N-isobutylsulfamoyl)phenyl)oxazole-4-carboxylate] displayed an inhibition constant (Ki) in [5] of 0.0279 nM. Also, the concentration for half-maximal inhibition (IC50) in [1] (setting [11]) is 6.2 nM; in assay [6] (setting [12]), 22 nM; in [7] (setting [12]), 320 nM; in [8] (setting [12]) it was 430 nM; in assay [9] (setting [12]), more than 1000 nM. The entries for the “fold change of IC50” value in assay [7], in assay [8] and in assay [9] were 15, 20 and more than 46, respectively.
Consider `CC(C)CN(C[C@@H](O)[C@H](Cc1ccccc1)NC(=O)O[C@H]1CO[C@H]2OCC[C@H]21)S(=O)(=O)c1ccc(-c2nc(CO)co2)cc1` [3h, (3R,3aS,6aR)-Hexahydrofuro[2,3-b]furan-3-yl ((2S,3R)-3-hydroxy-4-((4-(4-(hydroxymethyl)oxazol-2-yl)-N-isobutylphenyl)sulfona-mido)-1-phenylbutan-2-yl)carbamate], for which the IC50 is 3.9 nM in assay [1] (setting [10]); 3 nM in assay [6] (MT-4 cells, 50 TCID50 HIV-1NL4-3, p24 assay); 260 nM in assay [7] (MT-4 cells, 50 TCID50 HIV-1DRV^RP20, p24 assay); 290 nM in assay [8] (MT-4 cells, 50 TCID50 HIV-1DRV^RP30, p24 assay); more than 1000 nM in [9] (MT-4 cells, 50 TCID50 HIV-1DRV^RP40, p24 assay). Also, the “fold change of IC50” value is 88 in assay [7], 99 in assay [8] and more than 337 in assay [9].
As to `CC(C)CN(CC(O)C(Cc1ccccc1)NC(=O)OC1COC2OCCC12)S(=O)(=O)c1ccc(-c2cnco2)cc1` [3i, (3R,3aS,6aR)-Hexahydrofuro[2,3-b]furan-3-yl ((2S,3R)-3-hydroxy-4-((N-isobutyl-4-(oxazol-5-yl)phenyl)sulfonamido)-1-phenylbu-tan-2-yl)carbamate], the IC50 in [1] (setting [10]) was found to be 2.8 nM.
For `CC(C)CN(C[C@@H](O)[C@H](Cc1ccccc1)NC(=O)O[C@H]1CO[C@H]2OCC[C@H]21)S(=O)(=O)c1ccc(N)cc1` [DRV, darunavir, reference compound], the IC50 is 1.6 nM in assay [1] (setting [11]), 3.4 nM in [6] (setting [12]), 43 nM in assay [7] (setting [12]) and more than 1000 nM in [9] (setting [12]).
